We go through 17 compounds from patent publication US12612360B2 (Sanofi, priority 2020, dated 2026).

The assay concerns the target T1, ERα (Homo sapiens, UniProt P03372).
T1 construct: host or cells: MCF7
T1 sequence (P03372 1-595): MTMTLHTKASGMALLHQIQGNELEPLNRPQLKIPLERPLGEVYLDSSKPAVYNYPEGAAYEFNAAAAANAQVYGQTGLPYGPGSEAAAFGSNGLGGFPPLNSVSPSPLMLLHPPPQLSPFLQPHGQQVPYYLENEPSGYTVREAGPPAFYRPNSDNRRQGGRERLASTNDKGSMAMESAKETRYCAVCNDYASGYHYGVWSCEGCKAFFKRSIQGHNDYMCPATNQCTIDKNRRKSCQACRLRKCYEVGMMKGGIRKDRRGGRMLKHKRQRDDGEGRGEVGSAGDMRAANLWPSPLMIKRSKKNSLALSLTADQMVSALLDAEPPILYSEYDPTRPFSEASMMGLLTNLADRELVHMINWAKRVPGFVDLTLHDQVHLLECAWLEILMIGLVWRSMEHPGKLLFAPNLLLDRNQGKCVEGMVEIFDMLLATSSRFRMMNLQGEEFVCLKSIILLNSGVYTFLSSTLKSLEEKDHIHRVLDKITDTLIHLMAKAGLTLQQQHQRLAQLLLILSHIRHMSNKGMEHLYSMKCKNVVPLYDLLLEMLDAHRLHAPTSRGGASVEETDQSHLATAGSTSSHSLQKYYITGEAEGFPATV
The experiment in a line: Estrogen receptor degradation activity: breast cancer cell ERα in cell western assay (MCF7 cells). Type of assay: cell-based. To be noted: for % Degradation At 0.3 μM: 4 hours, relative to fulvestrant 0.1 μM positive control; for DC50: 4 hours post compound addition, concentration which degrades 50% of the estrogen receptor, read-out: Degradation IC50. The method in brief: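 In-cell western readout: ERα immunofluorescence (Alexa 488) normalised to DNA signal (Syto-64) after formalin fixation. Compounds dosed for 4 h on MCF7 cells in stripped-serum, phenol-red-free medium over nine 1:5 steps, 0.3 to […] final; fulvestrant 0.1 μM control. IC50 in nM for 50% ERα degradation.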

For `Cc1c(F)ccc(C2=C(c3ccc(C=C4CN(CCCF)C4)cc3)c3ccc(C(=O)O)cc3CCC2)c1C` [Example 87, 8-(4-fluoro-2,3-dimethylphenyl)-9-(4-((1-(3-fluoropropyl)azetidin-3-ylidene)methyl)phenyl)-6,7-dihydro-5H-benzo[7]annulene-3-carboxylic acid], the “% Degradation At 0.3 μM” value is given as 94% and the DC50 is 0.4 nM.

For `Cc1cc(Cl)ccc1C1=C(c2ccc(C=C3CN(CCCF)C3)cc2)c2ccc(C(=O)O)cc2CCC1` [Example 89, 8-(4-chloro-2-methylphenyl)-9-(4-((1-(3-fluoropropyl)azetidin-3-ylidene)methyl)phenyl)-6,7-dihydro-5H-benzo[7]annulene-3-carboxylic acid], the “% Degradation At 0.3 μM” value is 98% and the DC50 was 0.2 nM.

On to `Cc1cc(F)cc(C)c1C1=C(c2ccc(C=C3CN(CCCF)C3)cc2)c2ccc(C(=O)O)cc2CCC1` [Example 90, 8-(4-fluoro-2,6-dimethylphenyl)-9-(4-((1-(3-fluoropropyl)azetidin-3-ylidene)methyl)phenyl)-6,7-dihydro-5H-benzo[7]annulene-3-carboxylic acid], for which the “% Degradation At 0.3 μM” value was found to be 93% and the DC50 was 0.2 nM.

Consider `Cc1c(C#N)cccc1C1=C(c2ccc(C=C3CN(CCCF)C3)cc2)c2ccc(C(=O)O)cc2CCC1` [Example 91, 8-(3-cyano-2-methylphenyl)-9-(4-((1-(3-fluoropropyl)azetidin-3-ylidene)methyl)phenyl)-6,7-dihydro-5H-benzo[7]annulene-3-carboxylic acid], for which the “% Degradation At 0.3 μM” value is 87% and the DC50 is 0.9 nM.

Turning to `Cl.O=C(O)c1ccc2c(c1)CCCC(c1ccc(Cl)cc1Cl)=C2c1cc(F)c(C=C2CN(CCCF)C2)cc1F` [Example 92, 8-(2,4-dichlorophenyl)-9-(2,5-difluoro-4-((1-(3-fluoropropyl)azetidin-3-ylidene)methyl)phenyl)-6,7-dihydro-5H-benzo[7]annulene-3-carboxylic acid hydrochloride], the “% Degradation At 0.3 μM” value was determined as 98% and the DC50 was 0.3 nM.

In the case of `Cc1cc(C=C2CN(CCCF)C2)ccc1C1=C(c2ccc(Cl)cc2Cl)CCCc2cc(C(=O)O)ccc21.Cl` [Example 93, 8-(2,4-dichlorophenyl)-9-(4-((1-(3-fluoropropyl)azetidin-3-ylidene)methyl)-2-methylphenyl)-6,7-dihydro-5H-benzo[7]annulene-3-carboxylic acid hydrochloride], the “% Degradation At 0.3 μM” value was found to be 97% and the DC50 is 0.6 nM.

For the compound `Cc1cccc(C2=C(c3ccc(C=C4CN(CCCF)C4)cc3)c3ccc(C(=O)O)cc3CCC2)c1C` [Example 94, 8-(2,3-dimethylphenyl)-9-(4-((1-(3-fluoropropyl)azetidin-3-ylidene)methyl)phenyl)-6,7-dihydro-5H-benzo[7]annulene-3-carboxylic acid], the “% Degradation At 0.3 μM” value was determined as 96% and the DC50 worked out at 0.2 nM.

As to `O=C(O)c1ccc2c(c1)CCCC(c1ccc(F)cc1C(F)(F)F)=C2c1ccc(C=C2CN(CCCF)C2)cc1` [Example 95, 8-(4-fluoro-2-(trifluoromethyl)phenyl)-9-(4-((1-(3-fluoropropyl)azetidin-3-ylidene)methyl)phenyl)-6,7-dihydro-5H-benzo[7]annulene-3-carboxylic acid], the “% Degradation At 0.3 μM” value is on record as 94% and the DC50 was 0.2 nM.

On to `CCc1cc(F)ccc1C1=C(c2ccc(C=C3CN(CCCF)C3)cc2)c2ccc(C(=O)O)cc2CCC1` [Example 96, 8-(2-ethyl-4-fluorophenyl)-9-(4-((1-(3-fluoropropyl)azetidin-3-ylidene)methyl)phenyl)-6,7-dihydro-5H-benzo[7]annulene-3-carboxylic acid], for which the “% Degradation At 0.3 μM” value is 98% and the DC50 stood at 0.2 nM.

On to `Cc1cccc(C)c1C1=C(c2ccc(C=C3CN(CCCF)C3)cc2)c2ccc(C(=O)O)cc2CCC1` [Example 97, 8-(2,6-dimethylphenyl)-9-(4-((1-(3-fluoropropyl)azetidin-3-ylidene)methyl)phenyl)-6,7-dihydro-5H-benzo[7]annulene-3-carboxylic acid], for which the “% Degradation At 0.3 μM” value turned out to be 95% and the DC50 is 0.2 nM.

On to `Cc1cc(F)ccc1C1=C(c2ccc(C=C3CN(CCCF)C3)cc2)c2ccc(C(=O)O)cc2CCC1` [Example 98, 8-(4-fluoro-2-methylphenyl)-9-(4-((1-(3-fluoropropyl)azetidin-3-ylidene)methyl)phenyl)-6,7-dihydro-5H-benzo[7]annulene-3-carboxylic acid], for which the “% Degradation At 0.3 μM” value is given as 96% and the DC50 was 0.3 nM.

Consider `Cc1ccccc1C1=C(c2ccc(C=C3CN(CCCF)C3)cc2)c2ccc(C(=O)O)cc2CCC1` [Example 99, 9-(4-((1-(3-fluoropropyl)azetidin-3-ylidene)methyl)phenyl)-8-(o-tolyl)-6,7-dihydro-5H-benzo[7]annulene-3-carboxylic acid], for which the “% Degradation At 0.3 μM” value was 95% and the DC50 was determined as 0.3 nM.

Turning to `CC(C)CC1=C(c2ccc(C=C3CN(CCCF)C3)cc2)c2ccc(C(=O)O)cc2CCC1` [Example 100, 9-(4-((1-(3-Fluoropropyl)azetidin-3-ylidene)methyl)phenyl)-8-isobutyl-6,7-dihydro-5H-benzo[7]annulene-3-carboxylic acid], the “% Degradation At 0.3 μM” value amounted to 94% and the DC50 is 0.3 nM.

Turning to `Cl.O=C(O)c1ccc2c(c1)CCCC(c1ccc(Cl)cc1Cl)=C2c1ccc(C=C2CN(CCCF)C2)cc1F` [Example 101, 8-(2,4-dichlorophenyl)-9-(2-fluoro-4-((1-(3-fluoropropyl)azetidin-3-ylidene)methyl)phenyl)-6,7-dihydro-5H-benzo[7]annulene-3-carboxylic acid hydrochloride], the “% Degradation At 0.3 μM” value turned out to be 93% and the DC50 was found to be 0.4 nM.

For the compound `CC(=C1CN(CCCF)C1)c1ccc(C2=C(c3ccc(Cl)cc3Cl)CCCc3cc(C(=O)O)ccc32)cc1` [Example 102, 8-(2,4-Dichlorophenyl)-9-(4-(1-(1-(3-fluoropropyl)azetidin-3-ylidene)ethyl)phenyl)-6,7-dihydro-5H-benzo[7]annulene-3-carboxylic acid], the “% Degradation At 0.3 μM” value came to 89% and the DC50 stood at 0.3 nM.

Turning to `Cl.O=C(O)c1ccc2c(c1)CCCC(c1ccc(Cl)cc1Cl)=C2c1ccc(C=C2CN(CCCF)C2)c(F)c1` [Example 103, 8-(2,4-dichlorophenyl)-9-(3-fluoro-4-((1-(3-fluoropropyl)azetidin-3-ylidene)methyl)phenyl)-6,7-dihydro-5H-benzo[7]annulene-3-carboxylic acid hydrochloride], the “% Degradation At 0.3 μM” value is reported as 92% and the DC50 was 0.2 nM.

Consider `Cc1cc(C2=C(c3ccc(Cl)cc3Cl)CCCc3cc(C(=O)O)ccc32)cc(C)c1C=C1CN(CCCF)C1.Cl` [Example 104, 8-(2,4-dichlorophenyl)-9-(4-((1-(3-fluoropropyl)azetidin-3-ylidene)methyl)-3,5-dimethylphenyl)-6,7-dihydro-5H-benzo[7]annulene-3-carboxylic acid hydrochloride], for which the “% Degradation At 0.3 μM” value amounted to 79% and the DC50 amounted to 4.9 nM.
